In patent US5977169A, “Substituted tetronic acids useful for treating HIV and other retroviruses” (priority 1997, dated 1999):

Target: T1, HIV-1 protease (Human immunodeficiency virus type 1 group M subtype B, UniProt P04585)
T1 construct: The protease (or proteinase) enzyme, consisting of only 99 amino acids
Assay: In vitro HIV protease inhibitory assay (fluorescently labeled substrate, avidin-polystyrene particles)
Format: biochemical
Conditions: for inhibition at 3.3 µM: HIV-1 dose 3.3 μM; for inhibition at 10 µM: HIV-1 dose 10.0 μM; for inhibition at 30 µM: HIV-1 dose 30.0 μM; for inhibition at 0.37 µM: HIV-1 dose 0.37 μM; for inhibition at 1.1 µM: HIV-1 dose 1.1 μM
Protocol: The HIV protease screening assay is based on a fluorescently labeled substrate which can be resolved from nonlabeled cleavage product using avidin-polystyrene particles, 0.7-0.9 μm. The substrate is biotinylated at the amino terminal arginine and fluorescently labeled with fluorescein isothiocynate (FITC) at the carboxyl terminal lysine. This assay has been employed to detect novel, nonpeptidic inhibitors of HIV-1 protease. Substrate (20 μl of 0.2 μM), sample (10 μl of desired concentraion), and enzyme (10 μl of 0.1 μM) are added to a 96 well pandex plate. The assay is run in 0.1 M sodium acetate buffer at pH 5.5 in the presence of 1.0 M sodium chloride and 0.05% NP-40 and incubated in the dark for one hour at room temperature. Avidin coated polystyrene beads (40 μl of 0.1% (w/v)) are added and the incubation is continued in the dark for an additional half hour. The labeled cleavage product is separated from the unreacted substrate via filtration and is read on the IDEXX Screen Machine. (IDEXX Corporation--Portland, Me.) The data are analyzed by appropriate computer algorithms to ascertain percent inhibition values.
The Activity Table showing the results of the HIV Protease Inhibitory Assay appears below in TABLE 1. The table has three columns, the left column provides the code number of the compound for easy cross reference to structure tables and detailed procedures, the middle column provides the concentration of test compound and the column on the right provides the percent inhibition.

Structure (SMILES) | inhibition at 3.3 µM | inhibition at 10 µM | inhibition at 30 µM | also measured
CCCCC1(CCCc2ccccc2)OC(=O)C(C(c2ccccc2)C2CC2)=C1O (stereo not shown) [DX-12, 2(5H)-Furanone, 5-butyl-3-(cyclopropylphenylmethyl)-4-hydroxy-5-(3-phenyl-propyl)-] | 116% | 129% | 123% | –
O=C1OC(CCCc2ccccc2)(CCCc2ccccc2)C(O)=C1C(c1ccccc1)C1CC1 (stereo not shown) [DX-13, 2(5H)-Furanone, 3-(cyclopropylphenylmethyl)-4-hydroxy-5,5-bis(3-phenyl-propyl)-] | 85% | 102% | 106% | –
O=C1OC(CCCc2ccccc2)(CC2CC2)C(O)=C1C(c1ccccc1)C1CC1 (stereo not shown) [DX-14] | – | – | – | inhibition at 0.123 µM (HIV-1 dose 0.123 μM): 89.2%; inhibition at 0.37 µM: 104%
O=C1OC(CCCc2ccccc2)(Cc2ccccc2)C(O)=C1C(c1ccccc1)C1CC1 (stereo not shown) [DX-15, 2(5H)-Furanone, 3-(cyclopropylphenylmethyl)-4-hydroxy-5-(phenylmethyl)-5-(3--phenylpropyl)-] | 108% | 116% | 114% | –
C=CCC1(CCCc2ccccc2)OC(=O)C(C(c2ccccc2)C2CC2)=C1O (stereo not shown) [DX-16, 2(5H)-Furanone, 3-(cyclopropylphenylmethyl)-4-hydroxy-5-(3-phenyl-propyl)-5-(2-propenyl)-] | 114% | 115% | 118% | –
CC(C)C1(CCCc2ccccc2)OC(=O)C(C(c2ccccc2)C2CC2)=C1O (stereo not shown) [DX-17, 2(5H)-Furanone, 3-(cyclopropylphenylmethyl)-4-hydroxy-5-(1-methylethyl)-5-(3--phenylpropyl)-] | 103% | 97.6% | 96% | –
O=C1OC(CCCc2ccccc2)(CCc2ccccc2)C(O)=C1C(c1ccccc1)C1CC1 (stereo not shown) [DX-18, 2(5H)-Furanone, 3-(cyclopropylphenylmethyl)-4-hydroxy-5-(2-phenyl-ethyl)-5-(3-phenylpropyl)-] | 113% | 114% | 101% | –
CCC(C)C1(CCCc2ccccc2)OC(=O)C(C(c2ccccc2)C2CC2)=C1O (stereo not shown) [DX-19, 2(5H)-Furanone, 3-(cyclopropylphenylmethyl)-4-hydroxy-5-(1-methylpropyl)--5-(3-phenylpropyl)-] | 100% | – | – | inhibition at 0.37 µM: 100%; inhibition at 1.1 µM: 103%
CC(C)CC1(CCCc2ccccc2)OC(=O)C(C(c2ccccc2)C2CC2)=C1O (stereo not shown) [DX-20, 2(5H)-Furanone, 3-(cyclopropylphenylmethy)-4-hydroxy-5-(2-methylpropyl)-5--(3-phenylpropyl)-] | – | – | – | inhibition at 0.12 µM (HIV-1 dose 0.12 μM): 29.2%; inhibition at 0.37 µM: 71.5%; inhibition at 1.1 µM: 90.3%
O=C1OC(C(CCO)CCc2ccccc2)C(O)=C1C(c1ccccc1)C1CC1 (stereo not shown) [HX-2, 2(5H)-Furanone, 3-(cyclopropylphenylmethyl)-4-hydroxy-5-(1-(2-hydroxyethyl)--3-phenylpropyl)-] | – | – | – | inhibition at 0.1 µM (HIV-1 dose 0.1 μM): < 10%; inhibition at 0.3 µM (HIV-1 dose 0.3 μM): 13.5%

Now from value to compound, other results behind:

inhibition at 3.3 µM | inhibition at 10 µM | inhibition at 30 µM | Structure (SMILES) | also measured
15.5% | 35.4% | 50.6% | O=C1OC(CCCc2ccccc2)C(O)=C1C(Cc1ccccc1)c1ccccc1 (stereo not shown) [FX-1, 2(5H)-Furanone, 3-(1,2-diphenylethyl)-4-hydroxy-5-(3-phenylpropyl)-] | –
41.5% | 69% | 77.3% | O=C1OC(CCCc2ccccc2)C(O)=C1C(c1ccccc1)c1ccccc1 (stereo not shown) [FX-2, 2(5H)-Furanone, 3-(diphenylmethyl)-4-hydroxy-5-(3-phenylpropyl)-] | –
38.6% | 66.3% | 68.6% | C=CC(C1=C(O)C(CCCc2ccccc2)OC1=O)c1ccccc1 (stereo not shown) [FX-3, 2(5H)-Furanone, 4-hydroxy-3-(1-phenyl-2-propenyl)-5-(3-phenylpropyl)-] | –
56.6% | 84.4% | 96.5% | CC(C)C(C1=C(O)C(CCCc2ccccc2)OC1=O)c1ccccc1 (stereo not shown) [FX-4, 2(5H)-Furanone, 4-hydroxy-3-(2-methyl-1-phenylpropyl)-5-(3-phenylpropyl)-] | –
61.9% | 84.4% | 84.3% | CC(C)(C)C(C1=C(O)C(CCCc2ccccc2)OC1=O)c1ccccc1 (stereo not shown) [FX-5, 2(5H)-Furanone, 3-(2,2-dimethyl-1-phenylpropyl)-4-hydroxy-5-(3-phenyl-propyl)-] | –
70.9% | 88.3% | 74.9% | CCCCC(CCc1ccccc1)C1OC(=O)C(C(c2ccccc2)C2CC2)=C1O (stereo not shown) [GX-2, 2(5H)-Furanone, 3-(cyclopropylphenylmethyl)-4-hydroxy-5-(1-(2-phenyl-ethyl)pentyl)-] | –
67.2% | 84.7% | 87.4% | CC(CCc1ccccc1)C1OC(=O)C(C(c2ccccc2)C2CC2)=C1O (stereo not shown) [GX-3, 2(5H)-Furanone, 3-(cyclopropylphenylmethyl)-4-hydroxy-5-(1-methyl-3-phenyl-propyl)-] | –
93.6% | 108% | 103% | O=C1OC(C(CCc2ccccc2)c2ccccc2)C(O)=C1C(c1ccccc1)C1CC1 (stereo not shown) [GX-4, 2(5H)-Furanone,3-(cyclopropylphenylmethyl)-5-(1,3-diphenylpropyl)-4-hydroxy-] | –
94% | 94.1% | 99.2% | CCCCC(CC)C1OC(=O)C(C(c2ccccc2)C2CC2)=C1O (stereo not shown) [GX-5, 2(5H)-Furanone, 3-(cyclopropylphenylmethyl)-5-(1-ethylpentyl)-4-hydroxy-] | –
91.9% | 99.7% | 103% | CCC(c1ccccc1)C1OC(=O)C(C(c2ccccc2)C2CC2)=C1O (stereo not shown) [GX-6, 2(5H)-Furanone, 3-(cyclopropylphenylmethyl)-4-hydroxy-5-(1-phenylpropyl)-] | –
92.7% | 103% | 102% | CCCC(c1ccccc1)C1OC(=O)C(C(c2ccccc2)C2CC2)=C1O (stereo not shown) [GX-7, 2(5H)-Furanone, 3-(cyclopropylphenylmethyl)-4-hydroxy-5-(1-phenylbutyl)-] | –
85.9% | 104% | 84.3% | CCC(CC)C1OC(=O)C(C(c2ccccc2)C2CC2)=C1O (stereo not shown) [GX-8, 2(5H)-Furanone, 3-(cyclopropylphenylmethyl)-5-(1-ethylpropyl)-4-hydroxy-] | –
62.1% | 90.9% | – | COC(=O)CC(CCc1ccccc1)C1OC(=O)C(C(c2ccccc2)C2CC2)=C1O (stereo not drawn) [HX-1, 2-Furanpropanoic acid, 4-(cyclopropylphenyl-methyl)-2,5-dihydro-3-hydroxy-5--oxo-β-(2-phenylethyl)-, methyl ester] | inhibition at 1.1 µM: 37.6%
108% | 121% | 122% | CCCC1(CCC)OC(=O)C(C(c2cccc([N+](=O)[O-])c2)C2CC2)=C1O (stereo not shown) [IX-1, 2(5H)-Furanone, 3-(cyclopropyl(3-nitrophenyl)methyl)-4-hydroxy-5,5-dipropyl-] | –
102% | 113% | 102% | CCCC1(CCC)OC(=O)C(C(CC)c2cccc([N+](=O)[O-])c2)=C1O (stereo not shown) [IX-2, 2(5H)-Furanone, 4-hydroxy-3-(1-(3-nitrophenyl)propyl)-5,5-dipropyl-] | –
